Measurements: US9833497B2, “Human originated EGF domain proteins and use of the same” (CHENGDU SOURCEBIO LIMITED-LIABILITY COMPANY, priority 2013, dated 2017)

Experiments:
Assay type in all cases: cell-based
[1] = tested on: Citrobacter diversus; assay: MIC against Gram-negative bacteria: Citrobacter diversus; settings: for MIC C. diversus: two-fold serial dilution
Outline: (§1)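 The recombinant human-originated EGF domain proteins were serially diluted two-fold against bacteria at 5×10^5 CFU/mL in LB medium. After shaken incubation at 37° C, the lowest concentration with no bacterial growth was recorded as the MIC.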

[2] = tested on: E. coli DH5α; assay: Antibacterial activity: MIC and growth curve against E. coli DH5α in 96-well plate; settings: minimal inhibitory concentration against E. coli DH5α; 96-well plate, 5×10^5 CFU/mL, 37° C., judged after 8 h
Outline: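 Log-phase bacteria (OD600 ~0.5) resuspended in LB at 5×10^5 CFU/mL, exposed to recombinant protein at 50, 25, 12.5 μg/mL final in triplicate, 37 °C shaking at 175 rpm. OD600 read every 30 min; MIC is lowest concentration showing no growth.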

[3] = tested on: Enterobacter cloacae; assay: MIC against Gram-negative bacteria: Enterobacter cloacae; settings: for MIC E. cloacae: two-fold serial dilution
Outline: as §1

[4] = tested on: Klebsiella pneumonia; assay: MIC against Gram-negative bacteria: Klebsiella pneumonia; settings: for MIC K. pneumonia: two-fold serial dilution
Outline: as §1

[5] = tested on: E. coli BL21; assay: MIC against Gram-negative bacteria: E. coli BL21; settings: for MIC E. coli BL21: two-fold serial dilution; for MIC against E. coli BL21 / MIC / MIC (μg/mL) E. coli BL21: E. coli BL21
Outline: as §1

[6] = tested on: Aeromonas hydrophila; assay: MIC against Gram-negative bacteria: Aeromonas hydrophila; settings: for MIC A. hydrophila: two-fold serial dilution
Outline: as §1

[7] = tested on: Pseudomonas aeruginosa; assay: MIC against Gram-negative bacteria: Pseudomonas aeruginosa; settings: for MIC P. aeruginosa: two-fold serial dilution
Outline: as §1

[8] = tested on: Serratia marcescens; assay: MIC against Gram-negative bacteria: Serratia marcescens; settings: for MIC S. marcescens: two-fold serial dilution
Outline: as §1

[9] = tested on: Proteus vulgaris; assay: MIC against Gram-negative bacteria: Proteus vulgaris; settings: for MIC P. vulgaris: two-fold serial dilution
Outline: as §1

[10] = tested on: Proteus mirabilis; assay: MIC against Gram-negative bacteria: Proteus mirabilis; settings: for MIC P. mirabilis: two-fold serial dilution
Outline: as §1

[11] = tested on: Moraxella catarrhalis; assay: MIC against Gram-negative bacteria: Moraxella catarrhalis; settings: for MIC M. catarrhalis: two-fold serial dilution
Outline: as §1

[12] = 10 h cultivation at 37° C., 5×10^5 CFU/mL
[13] = Citrobacter diversus, 5×10^5 CFU/mL, 10 h cultivation at 37° C.
[14] = Enterobacter cloacae, 5×10^5 CFU/mL, 10 h cultivation at 37° C.
[15] = Klebsiella pneumonia, 5×10^5 CFU/mL, 10 h cultivation at 37° C.
[16] = 5×10^5 CFU/mL, 10 h cultivation at 37° C.
[17] = Aeromonas hydrophila, 5×10^5 CFU/mL, 10 h cultivation at 37° C.
[18] = Pseudomonas aeruginosa, 5×10^5 CFU/mL, 10 h cultivation at 37° C.
[19] = Serratia marcescens, 5×10^5 CFU/mL, 10 h cultivation at 37° C.
[20] = Proteus vulgaris, 5×10^5 CFU/mL, 10 h cultivation at 37° C.
[21] = Proteus mirabilis, 5×10^5 CFU/mL, 10 h cultivation at 37° C.
[22] = Moraxella catarrhalis, 5×10^5 CFU/mL, 10 h cultivation at 37° C.
[23] = C. diversus, 10 h cultivation at 37° C., 5×10^5 CFU/mL
[24] = E. cloacae, 10 h cultivation at 37° C., 5×10^5 CFU/mL
[25] = K. pneumonia, 10 h cultivation at 37° C., 5×10^5 CFU/mL
[26] = A. hydrophila, 10 h cultivation at 37° C., 5×10^5 CFU/mL
[27] = P. aeruginosa, 10 h cultivation at 37° C., 5×10^5 CFU/mL
[28] = S. marcescens, 10 h cultivation at 37° C., 5×10^5 CFU/mL
[29] = P. vulgaris, 10 h cultivation at 37° C., 5×10^5 CFU/mL
[30] = P. mirabilis, 10 h cultivation at 37° C., 5×10^5 CFU/mL
[31] = M. catarrhalis, 10 h cultivation at 37° C., 5×10^5 CFU/mL
[32] = Citrobacter diversus, 96-well plate, 5×10^5 CFU/mL, 37° C., 10 h
[33] = Enterobacter cloacae, 96-well plate, 5×10^5 CFU/mL, 37° C., 10 h
[34] = Klebsiella pneumonia, 96-well plate, 5×10^5 CFU/mL, 37° C., 10 h
[35] = 96-well plate, 5×10^5 CFU/mL, 37° C., 10 h
[36] = Aeromonas hydrophila, 96-well plate, 5×10^5 CFU/mL, 37° C., 10 h
[37] = Pseudomonas aeruginosa, 96-well plate, 5×10^5 CFU/mL, 37° C., 10 h
[38] = Serratia marcescens, 96-well plate, 5×10^5 CFU/mL, 37° C., 10 h
[39] = Proteus vulgaris, 96-well plate, 5×10^5 CFU/mL, 37° C., 10 h
[40] = Proteus mirabilis, 96-well plate, 5×10^5 CFU/mL, 37° C., 10 h
[41] = Moraxella catarrhalis, 96-well plate, 5×10^5 CFU/mL, 37° C., 10 h

PRT1186 (KNSSCLPNPCVNGGTCVGSGASFSCICRDGWEGRTCT; listed as Homo sapiens)
MIC C. diversus [1, 12]: 25 µg/mL | MIC [2]: 50 µg/mL | MIC E. cloacae [3, 12]: 50 µg/mL | MIC K. pneumonia [4, 12]: 25 µg/mL | MIC E. coli BL21 [5, 12]: 25 µg/mL | MIC A. hydrophila [6, 12]: 12.5 µg/mL | MIC P. aeruginosa [7, 12]: 12.5 µg/mL | MIC S. marcescens [8, 12]: 12.5 µg/mL | MIC P. vulgaris [9, 12]: 50 µg/mL | MIC P. mirabilis [10, 12]: 12.5 µg/mL | MIC M. catarrhalis [11, 12]: 50 µg/mL

PRT1442 (DKDECAKDNGGCQHECVNTFGSYLCRCRNGYWLHENGHDCK; listed as Homo sapiens)
MIC against C. diversus [1, 13]: 25 µg/mL | MIC [2]: 12.5 µg/mL | MIC against E. cloacae [3, 14]: 12.5 µg/mL | MIC against K. pneumonia [4, 15]: 50 µg/mL | MIC against E. coli BL21 [5, 16]: 12.5 µg/mL | MIC against A. hydrophila [6, 17]: 25 µg/mL | MIC against P. aeruginosa [7, 18]: 12.5 µg/mL | MIC against S. marcescens [8, 19]: 25 µg/mL | MIC against P. vulgaris [9, 20]: 12.5 µg/mL | MIC against P. mirabilis [10, 21]: 25 µg/mL | MIC against M. catarrhalis [11, 22]: 50 µg/mL

PRT916 (QADPCASNPCANGGQCLPFEASYICHCPPSFHGPTCR; listed as Homo sapiens)
MIC ([1]; C. diversus, 10 h cultivation at 37° C.): 25 µg/mL | MIC [2]: 25 µg/mL | MIC ([3]; E. cloacae, 10 h cultivation at 37° C.): 12.5 µg/mL | MIC ([4]; K. pneumonia, 10 h cultivation at 37° C.): 25 µg/mL | MIC ([5]; 10 h cultivation at 37° C.): 12.5 µg/mL | MIC ([6]; A. hydrophila, 10 h cultivation at 37° C.): 50 µg/mL | MIC ([7]; P. aeruginosa, 10 h cultivation at 37° C.): 50 µg/mL | MIC ([8]; S. marcescens, 10 h cultivation at 37° C.): 12.5 µg/mL | MIC ([9]; P. vulgaris, 10 h cultivation at 37° C.): 50 µg/mL | MIC ([10]; P. mirabilis, 10 h cultivation at 37° C.): 25 µg/mL | MIC ([11]; M. catarrhalis, 10 h cultivation at 37° C.): 12.5 µg/mL

PRT1111 (SEDMCSPDPCFNGGTCLVTWNDFHCTCPANFTGPTCA; listed as Homo sapiens)
MIC C. diversus [1, 12]: 12.5 µg/mL | MIC [2]: 12.5 µg/mL | MIC E. cloacae [3, 12]: 25 µg/mL | MIC K. pneumonia [4, 12]: 50 µg/mL | MIC E. coli BL21 [5, 12]: 50 µg/mL | MIC A. hydrophila [6, 12]: 25 µg/mL | MIC P. aeruginosa [7, 12]: 12.5 µg/mL | MIC S. marcescens [8, 12]: 12.5 µg/mL | MIC P. vulgaris [9, 12]: 25 µg/mL | MIC P. mirabilis [10, 12]: 50 µg/mL | MIC M. catarrhalis [11, 12]: 25 µg/mL

PRT840 (GSARCGSGGPGSCPVPQECVPQDGAAGAGLCRCPQGWAGPHCR; listed as Homo sapiens)
MIC (μg/mL) C. diversus [1, 23]: 12.5 µg/mL | MIC [2]: 25 µg/mL | MIC (μg/mL) E. cloacae [3, 24]: 12.5 µg/mL | MIC (μg/mL) K. pneumonia [4, 25]: 25 µg/mL | MIC (μg/mL) E. coli BL21 [5, 12]: 12.5 µg/mL | MIC (μg/mL) A. hydrophila [6, 26]: 25 µg/mL | MIC (μg/mL) P. aeruginosa [7, 27]: 25 µg/mL | MIC (μg/mL) S. marcescens [8, 28]: 25 µg/mL | MIC (μg/mL) P. vulgaris [9, 29]: 25 µg/mL | MIC (μg/mL) P. mirabilis [10, 30]: 12.5 µg/mL | MIC (μg/mL) M. catarrhalis [11, 31]: 25 µg/mL

PRT33 (ACELHTFGRTCKERCSGQEGCKSYVFCLPDPYGCSCATGWKGLQCN; listed as Homo sapiens)
MIC (μg/mL) C. diversus [1, 32]: 12.5 µg/mL | MIC [2]: 12.5 µg/mL | MIC (μg/mL) E. cloacae [3, 33]: 25 µg/mL | MIC (μg/mL) K. pneumonia [4, 34]: 12.5 µg/mL | MIC (μg/mL) E. coli BL21 [5, 35]: 50 µg/mL | MIC (μg/mL) A. hydrophila [6, 36]: 12.5 µg/mL | MIC (μg/mL) P. aeruginosa [7, 37]: 12.5 µg/mL | MIC (μg/mL) S. marcescens [8, 38]: 12.5 µg/mL | MIC (μg/mL) P. vulgaris [9, 39]: 25 µg/mL | MIC (μg/mL) P. mirabilis [10, 40]: 25 µg/mL | MIC (μg/mL) M. catarrhalis [11, 41]: 12.5 µg/mL

PRT234 (DINECATLSKVSCGKFSDCWNTEGSYDCVCSPGYEPVSGAKTFKNESENTCQ; listed as Homo sapiens)
MIC (μg/mL) C. diversus [1, 23]: 25 µg/mL | MIC [2]: 25 µg/mL | MIC (μg/mL) E. cloacae [3, 24]: 25 µg/mL | MIC (μg/mL) K. pneumonia [4, 25]: 12.5 µg/mL | MIC (μg/mL) E. coli BL21 [5, 12]: 50 µg/mL | MIC (μg/mL) A. hydrophila [6, 26]: 12.5 µg/mL | MIC (μg/mL) P. aeruginosa [7, 27]: 25 µg/mL | MIC (μg/mL) S. marcescens [8, 28]: 25 µg/mL | MIC (μg/mL) P. vulgaris [9, 29]: 12.5 µg/mL | MIC (μg/mL) P. mirabilis [10, 30]: 25 µg/mL | MIC (μg/mL) M. catarrhalis [11, 31]: 12.5 µg/mL

PRT1379 (GWPSCPGDCQGRGRCVQGVCVCRAGFSGPDC; listed as Homo sapiens)
MIC against C. diversus [1, 13]: 12.5 µg/mL | MIC [2]: 50 µg/mL | MIC against E. cloacae [3, 14]: 50 µg/mL | MIC against K. pneumonia [4, 15]: 12.5 µg/mL | MIC against E. coli BL21 [5, 16]: 12.5 µg/mL | MIC against A. hydrophila [6, 17]: 25 µg/mL | MIC against P. aeruginosa [7, 18]: 50 µg/mL | MIC against S. marcescens [8, 19]: 12.5 µg/mL | MIC against P. vulgaris [9, 20]: 25 µg/mL | MIC against P. mirabilis [10, 21]: 50 µg/mL | MIC against M. catarrhalis [11, 22]: 25 µg/mL

PRT75 (DDNICLREPCENYMRCVSVLRFDSSAPFIASSSVLFRPIHPVGGLRCRCPPGFTGDYCE; listed as Homo sapiens)
MIC (μg/mL) C. diversus [1, 32]: 12.5 µg/mL | MIC [2]: 50 µg/mL | MIC (μg/mL) E. cloacae [3, 33]: 50 µg/mL | MIC (μg/mL) K. pneumonia [4, 34]: 25 µg/mL | MIC (μg/mL) E. coli BL21 [5, 35]: 25 µg/mL | MIC (μg/mL) A. hydrophila [6, 36]: 12.5 µg/mL | MIC (μg/mL) P. aeruginosa [7, 37]: 12.5 µg/mL | MIC (μg/mL) S. marcescens [8, 38]: 12.5 µg/mL | MIC (μg/mL) P. vulgaris [9, 39]: 12.5 µg/mL | MIC (μg/mL) P. mirabilis [10, 40]: 12.5 µg/mL | MIC (μg/mL) M. catarrhalis [11, 41]: 12.5 µg/mL

PRT414 (DIDECESGIHNCLPDFICQNTLGSFRCRPKLQCKSGFIQDALGNCI; listed as Homo sapiens)
MIC [1, 23]: 12.5 µg/mL | MIC [2]: 12.5 µg/mL | MIC [3, 24]: 12.5 µg/mL | MIC [4, 25]: 12.5 µg/mL | MIC [5, 12]: 12.5 µg/mL | MIC [6, 26]: 25 µg/mL | MIC [7, 27]: 12.5 µg/mL | MIC [8, 28]: 50 µg/mL | MIC [9, 29]: 25 µg/mL | MIC [10, 30]: 12.5 µg/mL | MIC [11, 31]: 25 µg/mL
